Data set [1] deals with T1, rhinovirus 3C protease from HRV serotype-14 (Human rhinovirus 14, UniProt P03303).
T1 construct: Recombinant rhinovirus 3C proteases; made in house
The data set can be described thus: Inhibition of rhinovirus 3C protease (FRET assay), serotype 14. The format is biochemical. The settings on record: HRV serotype-14 3C protease; progress curves in enzyme start experiments; read-out: Protease Inhibition kobs/[I]. The protocol: (§1) Stock solutions (50 mM, in DMSO) of various compounds were prepared; dilutions were in the same solvent. Recombinant rhinovirus 3C proteases (see Birch et al., “Purification of recombinant human rhinovirus 14 3C protease expressed in Escherichia coli,” Protein Expr. Pur. 1995, 6(5), 609-618) from serotypes 14, 16, and 2 were prepared by the following standard chromatographic procedures: (1) ion exchange using Q Sepharose Fast Flow from Pharmacia; (2) affinity chromatography using Affi-Gel Blue from Biorad; and (3) sizing using Sephadex G-100 from Pharmacia. Each assay sample contained 2% DMSO, 50 mM tris pH 7.6, 1 mM EDTA, a test compound at the indicated concentration, approximately 1 μM substrate, and 50-100 nM protease. The kobs/I values were obtained from reactions initiated by addition of enzyme rather than substrate. RVP activity was measured in the fluorescence resonance energy transfer assay. The substrate was (N-terminal) DABCYL-(Gly-Arg-Ala-Val-Phe-Gln-Gly-Pro-Val-Gly)-EDANS. In the uncleaved peptide, the EDANS fluorescence was quenched by the proximal DABCYL moiety. When the peptide was cleaved, the quenching was relieved, and activity was measured as an increase in fluorescence signal. In Table 1, all data are for rhinovirus 3C protease from HRV serotype-14 (produced from the infectious cDNA clone constructed by Dr. Robert Rueckert, Institute for Molecular Virology, University of Wisconsin, Madison, Wis.). […] The data in the column designated kobs/[I] were measured from progress curves in enzyme start experiments.

The target of data set [2] is T2, rhinovirus 3C protease, serotype 16 (Human rhinovirus 16, UniProt Q82122).
T2 construct: Recombinant rhinovirus 3C proteases; made in house
The experiment in a line: Inhibition of rhinovirus 3C protease (FRET assay), serotype 16. The settings on record: Rhinovirus Serotype (16) 3C protease; read-out: kobs/I. The format is biochemical. How it is done:
Stock solutions (50 mM, in DMSO) of various compounds were prepared; dilutions were in the same solvent. Recombinant rhinovirus 3C proteases (see Birch et al., “Purification of recombinant human rhinovirus 14 3C protease expressed in Escherichia coli,” Protein Expr. Pur. 1995, 6(5), 609-618) from serotypes 14, 16, and 2 were prepared by the following standard chromatographic procedures: (1) ion exchange using Q Sepharose Fast Flow from Pharmacia; (2) affinity chromatography using Affi-Gel Blue from Biorad; and (3) sizing using Sephadex G-100 from Pharmacia. Each assay sample contained 2% DMSO, 50 mM tris pH 7.6, 1 mM EDTA, a test compound at the indicated concentration, approximately 1 μM substrate, and 50-100 nM protease. The kobs/I values were obtained from reactions initiated by addition of enzyme rather than substrate. RVP activity was measured in the fluorescence resonance energy transfer assay. The substrate was (N-terminal) DABCYL-(Gly-Arg-Ala-Val-Phe-Gln-Gly-Pro-Val-Gly)-EDANS. In the uncleaved peptide, the EDANS fluorescence was quenched by the proximal DABCYL moiety. When the peptide was cleaved, the quenching was relieved, and activity was measured as an increase in fluorescence signal. […] The data in the column designated kobs/[I] were measured from progress curves in enzyme start experiments.

Another data set concerns HRV-14. The data set can be described thus: Antirhinoviral H1-HeLa cell culture assay, HRV-14. The format is cell-based, human rhinovirus. The settings on record: Rhinovirus B, HRV14, H1-HeLa, HRV serotype-14, H1-HeLa cells. How it is done:
In this cell protection assay, the ability of compounds to protect cells against HRV infection was measured by the XTT dye reduction method, which is described in Weislow et al., J. Natl. Cancer Inst. 1989, vol. 81, 577-586.
H1-HeLa cells were infected with HRV-14 at a multiplicity of infection (m.o.i.) of 0.13 (virus particles/cell) or mock-infected with medium only. Infected or mock-infected cells were resuspended at 8×10^5 cells per mL, and incubated with appropriate concentrations of the compounds to be tested. Two days later, XTT/PMS was added to test plates and the amount of formazan produced was quantified spectrophotometrically at 450/650 nm. The EC50 value was calculated as the concentration of compound that increased the percentage of formazan production in compound-treated, virus-infected cells to 50% of that produced by compound-free, mock-infected cells. The 50% cytotoxic dose (CC50) was calculated as the concentration of compound that decreased the percentage of formazan produced in compound-treated, mock-infected cells to 50% of that produced by compound-free, mock-infected cells. The therapeutic index (TI) was calculated by dividing the CC50 value by the EC50 value.
All strains of human rhinovirus (HRV) for use in this assay were purchased from American Type Culture Collection (ATCC), except for HRV serotype-14 (produced from the infectious cDNA clone constructed by Dr. Robert Rueckert, Institute for Molecular Virology, University of Wisconsin, Madison, Wis.). HRV stocks were propagated and viral assays were performed in H1-HeLa cells (ATCC). Cells were grown in minimal essential medium with 10% fetal bovine serum, available from Life Technologies (Gaithersburg, Md.).
The compounds were tested against control compounds WIN 51711, WIN 52084, and WIN 54954 (obtained from Sterling-Winthrop Pharmaceuticals), Pirodavir (obtained from Janssen Pharmaceuticals), and Pleconaril (prepared according to the method described in Diana et al., J. Med. Chem 1995, vol. 38, 1355). Antiviral data obtained for the test compounds are shown in Tables 1 and 3, where all data are for HRV serotype-14 unless otherwise noted in parentheses.

Data set [3] addresses T3, rhinovirus 3C protease, serotype 2 (Human rhinovirus 2, UniProt P04936).
T3 construct: Recombinant rhinovirus 3C proteases; made in house
The data set can be described thus: Inhibition of rhinovirus 3C protease (FRET assay), serotype 2. Type of data set: biochemical. To be noted: Rhinovirus Serotype (2) 3C protease; read-out: kobs/I. How it is done:
as §1

Setting [4] is: Table 1, XTT dye reduction, read-out: Cell Protection EC50.

Like-named read-outs stand apart in the source and are kept apart here.

T1 sequence (P03303 1538-1719): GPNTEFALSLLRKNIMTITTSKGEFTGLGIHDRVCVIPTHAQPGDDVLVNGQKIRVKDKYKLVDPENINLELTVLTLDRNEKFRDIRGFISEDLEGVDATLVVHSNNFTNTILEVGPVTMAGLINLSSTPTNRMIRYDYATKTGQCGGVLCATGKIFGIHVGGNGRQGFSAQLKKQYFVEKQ
T2 sequence (Q82122 1511-1693): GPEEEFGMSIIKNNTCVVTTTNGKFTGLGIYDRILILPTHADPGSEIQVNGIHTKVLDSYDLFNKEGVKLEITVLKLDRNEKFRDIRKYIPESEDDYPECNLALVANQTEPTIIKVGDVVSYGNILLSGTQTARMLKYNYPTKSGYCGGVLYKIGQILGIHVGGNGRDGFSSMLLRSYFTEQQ
T3 sequence (P04936 1508-1690): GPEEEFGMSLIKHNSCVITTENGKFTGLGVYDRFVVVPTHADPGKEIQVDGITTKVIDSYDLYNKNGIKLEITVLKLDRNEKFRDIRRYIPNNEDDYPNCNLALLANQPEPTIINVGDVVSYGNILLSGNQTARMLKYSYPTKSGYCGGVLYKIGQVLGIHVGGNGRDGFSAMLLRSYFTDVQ

In general, melting point refers to the temperature of the solid-liquid transition. In general, EC50 refers to the concentration needed to bring the measured effect to its halfway point. With `CCOC(=O)/C=C/[C@H](CCC(N)=O)NC(=O)[C@H](Cc1ccccc1)NC(=O)[C@@H](NC(=O)OCc1ccccc1)C(C)C` [Comparison Compound #3, Ethyl-3-(Cbz-L-Val-L-Phe-L-Gln)-E-Propenoate], the melting point was 240 °C (dec.). Further, the kinact/KI in data set [1] is 62500 M⁻¹ s⁻¹. Also, in data set [2], the kinact/KI was found to be 16900 M⁻¹ s⁻¹. Besides, the EC50 in the data set with HRV-14 (setting [4]) came out at 380 nM. In addition, in the data set with HRV-14 (Table 3, XTT, read-out: EC50), the EC50 came to 380 nM. Moreover, in data set [3], the kinact/KI was found to be 8000 M⁻¹ s⁻¹.

Turning to `CCOC(=O)/C=C/[C@H](CCC(N)=O)NC(=O)[C@H](Cc1ccccc1)NC(=O)[C@H](CC(C)C)NC(=O)c1ccno1` [Compound A-2, Ethyl-3-((Isoxazole-5′-carbonyl)-L-Leu-L-Phe-L-Gln)-E-Propenoate], the melting point was in the range of 217 to 220 °C. In addition, the kinact/KI in data set [1] came to 46900 M⁻¹ s⁻¹. In the data set with HRV-14 (setting [4]), the 50% effective concentration (EC50) stood at 1600 nM. Further, in the data set on HRV-14 (Table 3, XTT, read-out: EC50), the concentration giving a half-maximal response (EC50) was found to be 1600 nM.
